Results from patent US11382328B2, “Rapid drug discovery methods for pathogen inactivation” (priority 2019, dated 2022).

System: E. coli strain W3110
Assay: Synergy assays: Biolog chemical sensitivity panels with Group IB metal, coefficient of drug interaction (CDI) from relative growth
Format: cell-based
Conditions: for CDI (coefficient of drug interaction), copper mixed with biocide: Copper (mM) section; for CDI (coefficient of drug interaction), gold + biocide: Gold (μM)
[1] = 2nd of 3 copper concentrations (value not shown), 2nd of four biocide concentrations
[2] = 2nd of 3 copper concentrations (value not shown), 3rd of four biocide concentrations
[3] = 2nd of 3 copper concentrations (value not shown), 4th of four biocide concentrations
[4] = Gold section of Table 5, first of three gold concentrations (μM, value not given), biocide concentration 3 of 4
[5] = Gold section of Table 5, first of three gold concentrations (μM, value not given), biocide concentration 4 of 4
[6] = Gold section of Table 5, second of three gold concentrations (μM, value not given), biocide concentration 3 of 4
[7] = Gold section of Table 5, second of three gold concentrations (μM, value not given), biocide concentration 4 of 4
[8] = Gold section of Table 5, third of three gold concentrations (μM, value not given), biocide concentration 3 of 4
[9] = Gold section of Table 5, third of three gold concentrations (μM, value not given), biocide concentration 4 of 4
[10] = Silver 0.5 μM, 3rd of four biocide concentrations, E. coli
[11] = Silver 0.5 μM, 4th of four biocide concentrations, E. coli
[12] = Silver 1.0 μM, 2nd of four biocide concentrations, E. coli
[13] = Silver 1.0 μM, 3rd of four biocide concentrations, E. coli
[14] = Silver 1.0 μM, 4th of four biocide concentrations, E. coli
[15] = Silver 5.0 μM, 2nd of four biocide concentrations, E. coli
[16] = Silver 5.0 μM, 3rd of four biocide concentrations, E. coli
[17] = Silver 5.0 μM, 4th of four biocide concentrations, E. coli
[18] = Copper (mM), 1st of 3 copper concentrations (head line not shown), biocide concentration 4 of 4, E. coli
[19] = Copper (mM), 2nd of 3 copper concentrations (head line not shown), biocide concentration 4 of 4, E. coli
[20] = Copper (mM), 3rd of 3 copper concentrations (head line not shown), biocide concentration 4 of 4, E. coli
[21] = first of 3 gold concentrations, biocide concentration 4 of 4
[22] = second of 3 gold concentrations, biocide concentration 4 of 4
[23] = third of 3 gold concentrations, biocide concentration 4 of 4
[24] = Silver 0.5 μM, biocide concentration 3 of 4
[25] = Silver 0.5 μM, biocide concentration 4 of 4
[26] = Silver 1.0 μM, biocide concentration 3 of 4
[27] = Silver 1.0 μM, biocide concentration 4 of 4
[28] = Silver 5.0 μM, biocide concentration 3 of 4
[29] = Silver 5.0 μM, biocide concentration 4 of 4
[30] = Gold 50 μM, biocide concentration 4 of 4, E. coli
[31] = 1st of 3 copper concentrations (value not shown), 4th of four biocide concentrations
[32] = 2nd of 3 copper concentrations (value not shown), 1st of four biocide concentrations
[33] = 3rd of 3 copper concentrations (value not shown), 4th of four biocide concentrations
[34] = Gold section of Table 5, first of three gold concentrations (μM, value not given), biocide concentration 2 of 4
[35] = Gold section of Table 5, second of three gold concentrations (μM, value not given), biocide concentration 2 of 4
[36] = Gold section of Table 5, third of three gold concentrations (μM, value not given), biocide concentration 2 of 4
[37] = Silver 0.5 μM, 2nd of four biocide concentrations, E. coli
[38] = Gold 5 μM, biocide concentration 3 of 4, E. coli
[39] = Gold 5 μM, biocide concentration 4 of 4, E. coli
[40] = Gold 25 μM, biocide concentration 3 of 4, E. coli
[41] = Gold 25 μM, biocide concentration 4 of 4, E. coli
[42] = […], biocide concentration 3 of 4, E. coli
[43] = […], biocide concentration 4 of 4, E. coli

Compound: Cc1cc(O)cc(C)c1Cl [chloroxylenol]
- CDI (coefficient of drug interaction), copper mixed with biocide [1]: Tox
- CDI (coefficient of drug interaction), copper mixed with biocide [2]: Tox
- CDI (coefficient of drug interaction), copper mixed with biocide [3]: Tox
- CDI (coefficient of drug interaction) [4]: Tox
- CDI (coefficient of drug interaction) [5]: Tox
- CDI (coefficient of drug interaction) [6]: Tox
- CDI (coefficient of drug interaction) [7]: Tox
- CDI (coefficient of drug interaction) [8]: Tox
- CDI (coefficient of drug interaction) [9]: Tox
- CDI (coefficient of drug interaction), silver + biocide [10]: Tox
- CDI (coefficient of drug interaction), silver + biocide [11]: Tox
- CDI (coefficient of drug interaction), silver + biocide [12]: Tox
- CDI (coefficient of drug interaction), silver + biocide [13]: Tox
- CDI (coefficient of drug interaction), silver + biocide [14]: Tox
- CDI (coefficient of drug interaction), silver + biocide [15]: Tox
- CDI (coefficient of drug interaction), silver + biocide [16]: Tox
- CDI (coefficient of drug interaction), silver + biocide [17]: Tox

Compound: Cc1onc(-c2ccccc2Cl)c1C(=O)N[C@@H]1C(=O)N2[C@@H]1SC(C)(C)[C@@H]2C(=O)O [cloxacillin]
- CDI (coefficient of drug interaction) [18]: Tox
- CDI (coefficient of drug interaction) (Copper (mM), 2nd of 3 copper concentrations (head line not shown), biocide concentration 3 of 4, E. coli): Tox
- CDI (coefficient of drug interaction) [19]: Tox
- CDI (coefficient of drug interaction) [20]: Tox
- CDI (coefficient of drug interaction), gold + biocide [21]: Tox
- CDI (coefficient of drug interaction), gold + biocide [22]: Tox
- CDI (coefficient of drug interaction), gold + biocide [23]: Tox
- CDI [24]: Tox
- CDI [25]: Tox
- CDI [26]: Tox
- CDI [27]: Tox
- CDI [28]: Tox
- CDI [29]: Tox

Compound: O=c1ccc2ccccc2o1 [coumarin]
- CDI (coefficient of drug interaction) [30]: Tox

Compound: CN(C)C(=O)/N=N/C(=O)N(C)C [diamide]
- CDI (coefficient of drug interaction), copper mixed with biocide (1st of 3 copper concentrations (value not shown), 1st of four biocide concentrations): 1.02
- CDI (coefficient of drug interaction), copper mixed with biocide (1st of 3 copper concentrations (value not shown), 2nd of four biocide concentrations): 0.98
- CDI (coefficient of drug interaction), copper mixed with biocide (1st of 3 copper concentrations (value not shown), 3rd of four biocide concentrations): 0.96
- CDI (coefficient of drug interaction), copper mixed with biocide [31]: 0.99
- CDI (coefficient of drug interaction), copper mixed with biocide [32]: 0.78
- CDI (coefficient of drug interaction), copper mixed with biocide [1]: 0.72
- CDI (coefficient of drug interaction), copper mixed with biocide [2]: Tox
- CDI (coefficient of drug interaction), copper mixed with biocide [3]: Tox
- CDI (coefficient of drug interaction), copper mixed with biocide (3rd of 3 copper concentrations (value not shown), 1st of four biocide concentrations): 0.52
- CDI (coefficient of drug interaction), copper mixed with biocide (3rd of 3 copper concentrations (value not shown), 2nd of four biocide concentrations): 0.51
- CDI (coefficient of drug interaction), copper mixed with biocide (3rd of 3 copper concentrations (value not shown), 3rd of four biocide concentrations): 0.52
- CDI (coefficient of drug interaction), copper mixed with biocide [33]: 0.56
- CDI (coefficient of drug interaction) (Gold section of Table 5, first of three gold concentrations (μM, value not given), biocide concentration 1 of 4): 0.99
- CDI (coefficient of drug interaction) [34]: 0.86
- CDI (coefficient of drug interaction) [4]: Tox
- CDI (coefficient of drug interaction) [5]: Tox
- CDI (coefficient of drug interaction) (Gold section of Table 5, second of three gold concentrations (μM, value not given), biocide concentration 1 of 4): 0.98
- CDI (coefficient of drug interaction) [35]: 0.89
- CDI (coefficient of drug interaction) [6]: Tox
- CDI (coefficient of drug interaction) [7]: Tox
- CDI (coefficient of drug interaction) (Gold section of Table 5, third of three gold concentrations (μM, value not given), biocide concentration 1 of 4): 0.98
- CDI (coefficient of drug interaction) [36]: 0.93
- CDI (coefficient of drug interaction) [8]: Tox
- CDI (coefficient of drug interaction) [9]: Tox
- CDI (Silver 0.5 μM, biocide concentration 1 of 4): 1.19
- CDI (Silver 0.5 μM, biocide concentration 2 of 4): 1.07
- CDI [24]: Tox
- CDI [25]: Tox
- CDI (Silver 1.0 μM, biocide concentration 1 of 4): 1.01
- CDI (Silver 1.0 μM, biocide concentration 2 of 4): 0.90
- CDI [26]: Tox
- CDI [27]: Tox
- CDI (Silver 5.0 μM, biocide concentration 1 of 4): 0.97
- CDI (Silver 5.0 μM, biocide concentration 2 of 4): 0.40
- CDI [28]: Tox
- CDI [29]: Tox

Compound: CN(C)S(=O)(=O)N(SC(F)(Cl)Cl)c1ccccc1 [dichlofluanid]
- CDI (coefficient of drug interaction), copper mixed with biocide [31]: Tox
- CDI (coefficient of drug interaction), copper mixed with biocide [32]: Tox
- CDI (coefficient of drug interaction), copper mixed with biocide [3]: Tox
- CDI (coefficient of drug interaction), copper mixed with biocide [33]: Tox
- CDI (coefficient of drug interaction) [34]: Tox
- CDI (coefficient of drug interaction) [35]: Tox
- CDI (coefficient of drug interaction) [36]: Tox
- CDI (coefficient of drug interaction), silver + biocide [37]: Tox
- CDI (coefficient of drug interaction), silver + biocide (Silver 1.0 μM, 1st of four biocide concentrations, E. coli): Tox
- CDI (coefficient of drug interaction), silver + biocide [12]: Tox
- CDI (coefficient of drug interaction), silver + biocide (Silver 5.0 μM, 1st of four biocide concentrations, E. coli): Tox
- CDI (coefficient of drug interaction), silver + biocide [15]: Tox

Compound: CCN(CC)C(=S)SSC(=S)N(CC)CC [disulfiram]
- CDI (coefficient of drug interaction), copper mixed with biocide [3]: Tox
- CDI (coefficient of drug interaction) [38]: Tox
- CDI (coefficient of drug interaction) [39]: Tox
- CDI (coefficient of drug interaction) [40]: Tox
- CDI (coefficient of drug interaction) [41]: Tox
- CDI (coefficient of drug interaction), silver + biocide [11]: Tox
- CDI (coefficient of drug interaction), silver + biocide [14]: Tox
- CDI (coefficient of drug interaction), silver + biocide [17]: Tox
- CDI (coefficient of drug interaction) [42]: Tox
- CDI (coefficient of drug interaction) [43]: Tox

Compound: CCCCCCCCCCCCNC(=N)N [dodine]
- CDI (coefficient of drug interaction), copper mixed with biocide [31]: Tox
- CDI (coefficient of drug interaction), copper mixed with biocide [2]: Tox
- CDI (coefficient of drug interaction), copper mixed with biocide [3]: Tox
- CDI (coefficient of drug interaction), copper mixed with biocide [33]: Tox
- CDI (coefficient of drug interaction) [5]: Tox
- CDI (coefficient of drug interaction) [7]: Tox
- CDI (coefficient of drug interaction) [9]: Tox
- CDI (coefficient of drug interaction), silver + biocide [10]: Tox
- CDI (coefficient of drug interaction), silver + biocide [11]: Tox
- CDI (coefficient of drug interaction), silver + biocide [13]: Tox
- CDI (coefficient of drug interaction), silver + biocide [14]: Tox
- CDI (coefficient of drug interaction), silver + biocide [16]: Tox
- CDI (coefficient of drug interaction), silver + biocide [17]: Tox

Compound: CCn1cc(C(=O)O)c(=O)c2cc(F)c(N3CCNCC3)nc21 [enoxacin]
- CDI (coefficient of drug interaction) (Gold 50 μM, biocide concentration 3 of 4, E. coli): Tox
- CDI (coefficient of drug interaction) [30]: Tox

Compound: O=C1OC(CN2CCOCC2)CN1/N=C/c1ccc([N+](=O)[O-])o1 (stereo not drawn) [furaltadone]
- CDI (coefficient of drug interaction) [30]: Tox

Compound: CCCCc1ccc(C(=O)O)nc1 [fusaric acid]
- CDI (Copper 0.1 mM, biocide concentration 3 of 4): Tox
- CDI (Copper 0.1 mM, biocide concentration 4 of 4): Tox
- CDI (Copper 0.5 mM, biocide concentration 3 of 4): Tox
- CDI (Copper 0.5 mM, biocide concentration 4 of 4): Tox
- CDI (Copper 1.0 mM, biocide concentration 3 of 4): Tox
- CDI (Copper 1.0 mM, biocide concentration 4 of 4): Tox
- CDI (coefficient of drug interaction) [38]: Tox
- CDI (coefficient of drug interaction) [39]: Tox
- CDI (coefficient of drug interaction) [40]: Tox
- CDI (coefficient of drug interaction) [41]: Tox
- CDI (coefficient of drug interaction), silver + biocide [37]: Tox
- CDI (coefficient of drug interaction), silver + biocide [10]: Tox
- CDI (coefficient of drug interaction), silver + biocide [11]: Tox
- CDI (coefficient of drug interaction), silver + biocide [12]: Tox
- CDI (coefficient of drug interaction), silver + biocide [13]: Tox
- CDI (coefficient of drug interaction), silver + biocide [14]: Tox
- CDI (coefficient of drug interaction), silver + biocide [15]: Tox
- CDI (coefficient of drug interaction), silver + biocide [16]: Tox
- CDI (coefficient of drug interaction), silver + biocide [17]: Tox
- CDI (coefficient of drug interaction) [42]: Tox
- CDI (coefficient of drug interaction) [43]: Tox

Compound: O=C(O)c1cc(O)c(O)c(O)c1 [gallic acid]
- CDI (coefficient of drug interaction) [18]: Tox
- CDI (coefficient of drug interaction) [19]: Tox
- CDI (coefficient of drug interaction) [20]: Tox
- CDI (coefficient of drug interaction), gold + biocide [21]: Tox
- CDI (coefficient of drug interaction), gold + biocide [22]: Tox
- CDI (coefficient of drug interaction), gold + biocide [23]: Tox
- CDI [25]: Tox
- CDI [27]: Tox
- CDI [29]: Tox
